Compound in the first experiment: CN(C)C/C=C/C(=O)Nc1ccc(C(=O)Nc2cccc(Nc3ncc(Cl)c(-c4c[nH]c5ccccc45)n3)c2)cc1 [THZ1]
The experiment in a line: GR value, 72 h; higher = faster growth (1 = untreated, <0 = killing).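 Note: breast cancer and non-malignant breast epithelial lines, nine half-log doses, viable cells counted by Hoechst and LIVE/DEAD dye imaging versus time-zero plates and DMSO controls.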 To be noted: 0.01 µM.
Consider SUM190PT, for which the GR value was 0.0733 GR.
On the same count and under the same terms, the result for SUM229PE reads 0.65 GR.
Same read-out and setting: the result for SUM1315 reads 0.999 GR.

The experiment is the same for the next values; noted with them: 0.03162 µM.
On to SUM159, for which the GR value is 0.955 GR.
Same read-out and setting: the result for SUM185PE reads -0.061 GR; that for SUM190PT, -0.46 GR.
Consider SUM229PE, for which the GR value was determined as 0.283 GR.
On the same count and under the same terms, the result for SUM1315 reads 0.982 GR.

Still in this experiment, the particulars now being: 0.1 µM.
As to SUM159, the GR value worked out at 0.809 GR.
With SUM185PE, the GR value came to 0.0851 GR.
Same read-out and setting: the result for SUM190PT reads -0.462 GR.
On the same count and under the same terms, the result for SUM229PE reads -0.0615 GR; that for SUM1315, 0.978 GR.

The same experiment, now with this note: 0.3162 µM.
Consider SUM159, for which the GR value is 0.646 GR.
As for SUM185PE, the GR value is 0.0061 GR.
Same read-out and setting: the result for SUM190PT reads -0.331 GR; that for SUM229PE, -0.216 GR; that for SUM1315, 0.391 GR.

Staying with this experiment, now noted: 1 µM.
For SUM159, the GR value is -0.112 GR.
Still for that read-out and setting: the result for SUM185PE reads -0.203 GR; that for SUM190PT, -0.467 GR.
On to SUM229PE, for which the GR value was -0.297 GR.
Consider SUM1315, for which the GR value was -0.906 GR.

Compound in another experiment: CC(=O)c1c(C)c2cnc(Nc3ccc(N4CCNCC4)cn3)nc2n(C2CCCC2)c1=O
The experiment in a line: increase in dead-cell fraction, 72 h; higher = more death.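 Note: breast cancer cell lines in 384-well plates, stained with Hoechst plus LIVE/DEAD far red dye and imaged, cells above an LDR intensity threshold counted dead, Hoechst-negative corpses included.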 To be noted: 0.0003162 µM.
For the cell line SUM159, the “increase in dead-cell fraction” value turned out to be 0.
Same read-out and setting: the result for SUM185PE reads 0.0082; that for SUM190PT, -0.0078; that for SUM229PE, -0.0072.
Take SUM1315: the “increase in dead-cell fraction” value is -0.0007.

The experiment is the same for the next values; noted with them: 0.001 µM.
As to SUM159, the “increase in dead-cell fraction” value was 0.0001.
Still for that read-out and setting: the result for SUM185PE reads 0.0038; that for SUM190PT, -0.0072; that for SUM229PE, 0.0057.
Still for that read-out and setting: the result for SUM1315 reads -0.0011.

Staying with this experiment, now noted: 0.003162 µM.
Take SUM159: the “increase in dead-cell fraction” value is -0.0023.
Regarding SUM185PE, the “increase in dead-cell fraction” value amounted to 0.0174.
For the cell line SUM190PT, the “increase in dead-cell fraction” value was -0.0095.
Consider SUM229PE, for which the “increase in dead-cell fraction” value was -0.0076.
Regarding SUM1315, the “increase in dead-cell fraction” value is -0.0024.

The same experiment, now with this note: 0.01 µM.
Regarding SUM159, the “increase in dead-cell fraction” value is -0.0027.
Still for that read-out and setting: the result for SUM185PE reads -0.0044; that for SUM190PT, 0.0012.
The same measure, in the same setting: the result for SUM229PE reads -0.0059; that for SUM1315, 0.0003.

The same experiment, now with this note: 0.03162 µM.
For SUM159, the “increase in dead-cell fraction” value was -0.009.
The same measure, in the same setting: the result for SUM185PE reads -0.0035; that for SUM190PT, -0.0013; that for SUM229PE, -0.0018.
The same measure, in the same setting: the result for SUM1315 reads 0.0166.

Staying with this experiment, now noted: 0.1 µM.
For the cell line SUM159, the “increase in dead-cell fraction” value was -0.0094.
Regarding SUM185PE, the “increase in dead-cell fraction” value is 0.0063.
Same read-out and setting: the result for SUM190PT reads 0.0119.
Consider SUM229PE, for which the “increase in dead-cell fraction” value is -0.0045.
The same measure, in the same setting: the result for SUM1315 reads 0.0188.

Still in this experiment, the particulars now being: 0.3162 µM.
For the cell line SUM159, the “increase in dead-cell fraction” value is -0.0078.
The same measure, in the same setting: the result for SUM185PE reads 0.02.
As to SUM190PT, the “increase in dead-cell fraction” value was 0.0131.
Same read-out and setting: the result for SUM229PE reads -0.0032; that for SUM1315, 0.0295.

Still in this experiment, the particulars now being: 1 µM.
SUM159: the “increase in dead-cell fraction” value was -0.0049.
Take SUM185PE: the “increase in dead-cell fraction” value stood at 0.0086.
As to SUM190PT, the “increase in dead-cell fraction” value came to 0.0095.
On the same count and under the same terms, the result for SUM229PE reads -0.0082; that for SUM1315, 0.0213.

Staying with this experiment, now noted: 3.162 µM.
Turning to SUM159, the “increase in dead-cell fraction” value is -0.0004.
The same measure, in the same setting: the result for SUM185PE reads 0.0015; that for SUM190PT, 0.0058.
Take SUM229PE: the “increase in dead-cell fraction” value worked out at 0.009.
SUM1315: the “increase in dead-cell fraction” value was 0.0282.
